A word on the IC50: it is the concentration needed to halve the response being measured. As usually defined, the EC50 is the concentration at which the effect is half-maximal. Higher therefore signals lower potency in that assay.

One assay deals with human STING protein (Homo sapiens (Human), UniProt Q86WV6). The experiment in a line: WT STING binding assay (HTRF, competition with labeled 2′3′cGAMP). The following applies: recombinant 6×His-tagged human STING, three hours at room temperature. The procedure, abridged: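 Competitive HTRF binding: 10-point compound titration incubated 3 h at room temperature with 6×His-tagged human STING and labeled 2′3′cGAMP; FRET read at 665 nm. IC50 by curve fitting; percent inhibition relative to maximal binding of unlabeled 2′3′cGAMP control.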
human STING protein, sequence (Q86WV6 whole entry): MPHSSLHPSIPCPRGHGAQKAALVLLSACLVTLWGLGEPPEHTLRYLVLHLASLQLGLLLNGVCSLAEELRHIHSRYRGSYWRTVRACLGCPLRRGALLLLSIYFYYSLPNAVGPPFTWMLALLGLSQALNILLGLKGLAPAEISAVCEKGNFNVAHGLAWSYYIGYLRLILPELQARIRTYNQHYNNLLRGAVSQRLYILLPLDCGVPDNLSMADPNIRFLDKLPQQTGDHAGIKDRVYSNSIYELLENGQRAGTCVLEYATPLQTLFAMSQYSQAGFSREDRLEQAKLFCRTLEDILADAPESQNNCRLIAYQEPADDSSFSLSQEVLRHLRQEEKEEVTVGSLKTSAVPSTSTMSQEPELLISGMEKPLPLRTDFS

The next assay concerns THP-1 Lucia ISG cells. The experiment in a line: ISRE-luciferase assay (ISG-LUC activation). The class given is cell-based. The following applies: Homo sapiens, THP1-Lucia ISG, 24 hours, luciferase reporter. The procedure, abridged: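 THP-1 Lucia ISG cells at 5×10^5 cells/ml in 2% FBS medium were treated with test article or DMSO vehicle for 24 h. Secreted luciferase was read by luminescence and normalized to vehicle, reported as RLU.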
(Reporter assays use an easily measured gene product as a stand-in for the process of interest.)

Regarding `O=C(Nc1cc(CCc2cc(NC(=O)c3ccc(-n4ccnc4)nn3)c(C(=O)O)cc2F)c(F)cc1C(=O)O)c1ccc(-n2ccnc2)nn1` [Compound 187], the IC50 on human STING protein fell in the range of 10 to 100 nM. Besides, the EC50 in the assay on THP-1 Lucia ISG cells fell in the range of 50 to 500 nM.
For `O=C(Nc1cc(OCCCCOc2cc(NC(=O)c3ccc4nnnn4n3)c(C(=O)O)cc2F)ccc1C(=O)O)c1ccc(-n2ccnc2)nn1` [Compound 74], at human STING protein, the concentration for half-maximal inhibition (IC50) lay within 10 to 100 nM. Also, the EC50 in the assay on THP-1 Lucia ISG cells is greater than 5000 nM.
For `O=C(Nc1cc(CCOc2cc(NC(=O)c3ccc(-n4ccnc4)nn3)c(C(=O)O)cc2Cl)c(F)cc1C(=O)O)c1ccc(-n2ccnc2)nn1` [Compound 197], the IC50 at human STING protein was 10 to 100 nM. In addition, in the assay with THP-1 Lucia ISG cells, the EC50 was 50 to 500 nM.
For `COc1cc(C(=O)O)c(NC(=O)c2ccc3nnnn3n2)cc1OCCCCOc1cc(NC(=O)c2ccc(-n3ccnc3)nn2)c(C(=O)O)cc1F` [Compound 95] the same measures were 10 to 100 nM and 500 to 5000 nM.
Turning to `O=C(Nc1cc(OCCc2cc(NC(=O)c3ccc4nnnn4n3)c(C(=O)O)cc2F)c(F)cc1C(=O)O)c1ccc(-n2ccnc2)nn1` [Compound 116], the IC50 on human STING protein fell in the range of 10 to 100 nM. Also, in the assay with THP-1 Lucia ISG cells, the EC50 lay in the range of 50 to 500 nM.
For `O=C(Nc1ccc(CCCc2cc(NC(=O)c3ccc(-n4ccnc4)nn3)c(C(=O)O)cc2F)cc1C(=O)O)c1ccc(-n2ccnc2)nn1` [Compound 71] the same measures were 10 to 100 nM and greater than 5000 nM.
For `N#Cc1cc(C(=O)O)c(NC(=O)c2ccc(-n3ccnc3)nn2)cc1OCCc1cc(NC(=O)c2ccc(-n3ccnc3)nn2)c(C(=O)O)cc1F` [Compound 167] the same measures were 10 to 100 nM and 50 to 500 nM.
The corresponding values for `COC(=O)c1ccc(OCCCCOc2cc(NC(=O)c3ccc4nnnn4n3)c(C(=O)O)cc2F)cc1NC(=O)c1ccc(-n2ccnc2)nn1` [Compound 62] are 100 to 1000 nM and greater than 5000 nM.
Consider `COC(=O)c1cc(F)c(CCOc2cc(NC(=O)c3ccc(-n4ccnc4)nn3)c(C(=O)O)cc2F)cc1NC(=O)c1ccc(-n2ccnc2)nn1` [Compound 140], for which the IC50 on human STING protein was in the range of 100 to 1000 nM. In the assay on THP-1 Lucia ISG cells, this compound showed an EC50 of less than 50 nM.
For `COc1cc(NC(=O)c2ccc3nnnn3n2)c(C(=O)O)cc1CCCc1ccc(C(=O)O)c(NC(=O)c2ccc(-n3ccnc3)nn2)c1` [Compound 84], on human STING protein, the IC50 lay in the range of 100 to 1000 nM. In addition, the EC50 in the assay on THP-1 Lucia ISG cells lay within 500 to 5000 nM.
The corresponding values for `O=C(Nc1cc(OCCc2cc(NC(=O)c3ccc4nnnn4n3)c(C(=O)O)cc2F)ccc1C(=O)O)c1ccc(-n2ccnc2)nn1` [Compound 97] are 100 to 1000 nM and 500 to 5000 nM.
The corresponding values for `O=C(Nc1cc(CS(=O)(=O)Cc2cc(NC(=O)c3ccc(-n4ccnc4)nn3)c(C(=O)O)cc2F)c(F)cc1C(=O)O)c1ccc(-n2ccnc2)nn1` [Compound 143] are 10 to 100 nM and greater than 5000 nM.
`O=C(Nc1cc(CCOc2cc(NC(=O)c3ccc4nnnn4n3)c(C(=O)O)cc2F)c(Cl)cc1C(=O)O)c1ccc(-n2ccnc2)nn1` [Compound 196]: at human STING protein, the half-inhibitory concentration (IC50) was in the range of 10 to 100 nM. Further, in the assay with THP-1 Lucia ISG cells, the EC50 is 50 to 500 nM.
The corresponding values for `O=C(Nc1cc(OCCCCOc2ccc(C(=O)O)c(NC(=O)c3ccc(-n4ccnc4)nn3)c2)ccc1C(=O)O)c1ccc(-n2ccnc2)nn1` [Compound 16] are 100 to 1000 nM and greater than 5000 nM.
The corresponding values for `COc1cc(C(=O)O)c(NC(=O)c2ccc3nnnn3n2)cc1OCCc1cc(NC(=O)c2ccc(-n3ccnc3)nn2)c(C(=O)O)cc1F` [Compound 102] are 100 to 1000 nM and 500 to 5000 nM.
Regarding `O=C(Nc1cc(COCc2cc(NC(=O)c3ccc(-n4ccnc4)nn3)c(C(=O)O)cc2F)c(F)cc1C(=O)O)c1ccc(-n2ccnc2)nn1` [Compound 151], at human STING protein, the IC50 was in the range of 10 to 100 nM. In the assay with THP-1 Lucia ISG cells, this compound displayed an EC50 of 50 to 500 nM.
For `O=c1oc(-c2ccc(-n3ccnc3)nn2)nc2cc(OCCCCOc3cc4nc(-c5ccc(-n6ccnc6)nn5)oc(=O)c4cc3F)ccc12` [Compound 46] the same measures were 100 to 1000 nM and 500 to 5000 nM.
The corresponding values for `N#Cc1nnn2nc(C(=O)Nc3cc(CCOc4cc(NC(=O)c5ccc(-n6ccnc6)nn5)c(C(=O)O)cc4F)c(F)cc3C(=O)O)ccc12` [Compound 136] are 100 to 1000 nM and greater than 5000 nM.
The corresponding values for `COc1cc(C(=O)O)c(NC(=O)c2ccc(-n3ccnc3)nn2)cc1CCCc1cc(NC(=O)c2ccc3nnnn3n2)c(C(=O)O)cc1F` [Compound 107] are 10 to 100 nM and 50 to 500 nM.
Regarding `COc1cc(NC(=O)c2ccc(-n3ccnc3)nn2)c(C(=O)O)c(F)c1CCCc1cc(NC(=O)c2ccc(-n3ccnc3)nn2)c(C(=O)O)cc1F` [Compound 170], on human STING protein, the IC50 was 10 to 100 nM. The EC50 in the assay with THP-1 Lucia ISG cells fell in the range of 50 to 500 nM.
On to `Nc1cc(C(=O)Nc2cc(OCCc3cc(NC(=O)c4ccc(-n5ccnc5)nn4)c(C(=O)O)cc3F)c(F)cc2C(=O)O)nn2nnnc12` [Compound 137], for which the IC50 on human STING protein lay within 10 to 100 nM. For the same compound, the EC50 with THP-1 Lucia ISG cells was 50 to 500 nM.
